The numbers were not newly measured in US20240307504A1, “INTRANASAL FORMULATIONS AND DELIVERY OF SOMATOSTATIN MIMETICS AND USES THEREOF” (NBO PHARMA LLC, priority 2021, published 2024), which cites them from elsewhere.

Where two headings read alike, the source gives them in different places.

Turning to `C[C@@H](O)[C@@H]1NC(=O)[C@H](CCCCN)NC(=O)[C@@H](Cc2c[nH]c3ccccc23)NC(=O)[C@H](Cc2ccccc2)NC(=O)[C@@H](NC(=O)[C@H](N)Cc2ccccc2)CSSC[C@@H](C(=O)N[C@H](CO)[C@@H](C)O)NC1=O` [Octreotide], the biological half-life is on record as 72 minutes (after intravenous administration) and 102 minutes (after subcutaneous administration).

Consider “L-alanyl-glycyl-L-cysteinyl-L-lysyl-L-asparagyl-L-phenylalanyl-L-phenylalanyl-L-tryptophyl-L-lysyl-L-threonyl-L-phenylalanyl-L-threonyl-L-seryl-L-cysteine (3->14)-disulfide [somatostatin]”, for which the biological half-life (in vivo) was 2-3 minutes.
